Results on 21 compounds are retold here after US9328106B2, “Cyclic ether pyrazol-4-yl-heterocyclyl-carboxamide compounds and methods of use” (Genentech, Inc., priority 2012, dated 2016).

Broadly, the IC50 is the midpoint of a concentration-inhibition curve. By EC50 is commonly meant the midpoint of the concentration-response curve. The term Ki denotes the equilibrium dissociation constant of an inhibitor or competing ligand from its target.

One experiment concerns BaF3 parental cells. The experiment in a line: In vitro cell proliferation, BaF3 parental line + IL3.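 Further: BaF3 parental cells are murine IL-3 dependent pro-B cells grown with 2 ng/mL mIL-3, 384-well format, viability read by luminescence.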 The class given is cell-based, murine.
For a further experiment, the system named is BaF3 PIM1 cells. The experiment in a line: In vitro cell proliferation, BaF3 transfected with PIM1.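 Further: murine IL-3-dependent pro-B BaF3 cells transfected with PIM1, compound exposure overnight at 37 °C under 5% CO2, viability read as luminescence.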 It counts as cell-based, murine.
For experiment [1], the system named is MM1.S (multiple myeloma) cells. The experiment in a line: In vitro cell proliferation, MM1.S multiple myeloma cells.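 Further: cells cultured in RPMI with 10% FBS and 2 mM L-Glutamine, seeded in 384-well plates, exposed to compound, cell viability measured by luminescence after CellTiter-Glo addition.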 It counts as cell-based. The conditions noted are these: read-out: Prolif MM1S ATP (EC50).
Method: (§1) BaF3 parental line was obtained from the DSMZ repository. […] Media for BaF3 parental line contained RPMI, 10% FBS, 2 mM L-Glutamine, 2 ng/mL mIL-3. Media for BaF3 PIM1 & 2 lines contained RPMI, 10% FBS, 2 mM L-Glutamine, 250 μg/mL. Media for MM1.S (multiple myeloma cells) line contained RPMI, 10% FBS, 2 mM L-Glutamine.
(§2) BaF3, a murine interleukin-3 dependent pro-B cell line, parental cells, BaF3 PIM1 cells, BaF3 PIM2 cells, and MM1.S (multiple myeloma) cells were seeded at 2 k/well, 5 k/well, 5 k/well, and 10 k/well respectively, in a 384-well plate, at 45 μL/well. Test compound was added at 5 μL/well. BaF3 cells (parental and transfected) were incubated overnight, while MM1.S cells were incubated for 72 hours at 37° C., 5% CO2. CELL TITER GLO® Reagent (Promega) was added at 50 μL/well, the plates were incubated for 30 minutes, and their luminescence read on an HT Analyst. IC50/EC50 values for the test compound were calculated.
The target in another experiment is PIM1 (Homo sapiens (Human), UniProt P11309). Nature of the experiment: biochemical. The class given is biochemical. The following applies: 20 pM PIM1, 1 μM FAM-peptide, 10 μM ATP, 90 minutes at room temperature; read-out: PIM1 LC3K (KI).
Where [2] appears, read: Mus musculus, BaF3, BaF3 parental, mIL-3, incubated overnight, CELL TITER GLO, read-out: Prolif BaF3 IL3 (IC50).
[3] abbreviates: read-out: Prolif BaF3 PIM1 (IC50), BaF3 PIM1 cells, incubated overnight, CELL TITER GLO.
Where [4] appears, read: MM1.S cells, 72 hours, CELL TITER GLO.
Where [5] appears, read: Mus musculus, BaF3, read-out: Prolif BaF3 PIM1 (IC50), BaF3 PIM1 cells, incubated overnight, CELL TITER GLO.
Setting [6] is: Homo sapiens, MM1.S, 72 h, MM1.S cells, 72 hours, CELL TITER GLO.
The mark [7] stands for this setting: Mus musculus, BaF3 PIM1 cells, incubated overnight, CELL TITER GLO, read-out: Prolif BaF3 PIM1 (IC50).

Read-outs that look alike come from different tables or passages of the source.

Sequence of PIM1 (P11309 whole entry): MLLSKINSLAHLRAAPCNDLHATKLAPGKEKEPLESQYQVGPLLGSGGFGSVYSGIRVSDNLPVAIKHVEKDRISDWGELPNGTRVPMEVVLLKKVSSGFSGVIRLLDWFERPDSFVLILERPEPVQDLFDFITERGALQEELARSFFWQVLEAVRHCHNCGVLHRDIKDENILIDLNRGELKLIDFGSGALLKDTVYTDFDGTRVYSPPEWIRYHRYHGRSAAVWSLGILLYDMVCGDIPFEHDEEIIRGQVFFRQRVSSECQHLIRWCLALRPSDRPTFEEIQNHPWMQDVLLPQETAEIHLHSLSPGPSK
Method for BaF3 PIM1 cells: as §1, §2

On to `Cn1ncc(NC(=O)c2nc(-c3c(F)cccc3F)sc2N)c1C12CCC(O)C(CC1)O2` (single isomer, unassigned) [Example 109, 5-amino-2-(2,6-difluorophenyl)-N-[5-(2-hydroxy-8-oxabicyclo[3.2.1]octan-5-yl)-1-methyl-pyrazol-4-yl]thiazole-4-carboxamide], for which the IC50 stood at 8300 nM in the experiment on BaF3 parental cells (setting [2]) and 115 nM in the experiment with BaF3 PIM1 cells (setting [3]). Also, the EC50 in experiment [1] (setting [4]) amounted to 9200 nM. On PIM1, the Ki turned out to be 0.034 nM.
As for `Cn1ncc(NC(=O)c2nc(-c3c(F)cccc3F)sc2N)c1C12CCC(O)C(CC1)O2` (single isomer, unassigned) [Example 110, 5-amino-2-(2,6-difluorophenyl)-N-[5-(2-hydroxy-8-oxabicyclo[3.2.1]octan-5-yl)-1-methyl-pyrazol-4-yl]thiazole-4-carboxamide], the IC50 amounted to 9400 nM in the experiment with BaF3 parental cells (BaF3 parental, mIL-3, incubated overnight, CELL TITER GLO, read-out: Prolif BaF3 IL3 (IC50)) and 44.8 nM in the experiment on BaF3 PIM1 cells (setting [3]). In experiment [1] (setting [4]), the EC50 was determined as 2400 nM. Also, the Ki on PIM1 came to 0.017 nM.
As for `C[C@H]1O[C@@H](c2c(NC(=O)c3csc(-c4c(F)cccc4F)n3)cnn2C)C[C@@H](N)[C@]1(C)O` (single isomer, unassigned) [Example 341], the IC50 was above 25000 nM in the experiment on BaF3 parental cells (setting [2]) and 96.8 nM with BaF3 PIM1 cells (setting [5]). In addition, in experiment [1] (setting [6]), the EC50 was determined as 6900 nM. The Ki on PIM1 amounted to 0.003 nM.
`C[C@@H]1O[C@@H](c2c(NC(=O)c3csc(-c4c(F)cccc4F)n3)cnn2C)C[C@H](N)[C@@]1(C)O` (single isomer, unassigned) [Example 342]: the IC50 worked out at 10000 nM with BaF3 parental cells (setting [2]) and 12700 nM in the experiment on BaF3 PIM1 cells (setting [5]). The EC50 in experiment [1] (setting [6]) worked out at 21600 nM. The Ki at PIM1 was 2.3 nM.
As for `C[C@H](O)c1ccc(-c2nc(C(=O)Nc3cnn(C)c3[C@@H]3CC[C@@H](N)[C@H](F)CO3)cs2)c(F)c1F` (single isomer, unassigned) [Example 365], the concentration for half-maximal inhibition (IC50) turned out to be 15900 nM in the experiment with BaF3 parental cells (setting [2]) and 408 nM in the experiment on BaF3 PIM1 cells (setting [5]). Further, in experiment [1] (setting [6]), the EC50 amounted to 348 nM. Besides, the Ki on PIM1 amounted to 0.069 nM.
Consider `C[C@@H](O)c1ccc(-c2nc(C(=O)Nc3cnn(C)c3[C@@H]3CC[C@@H](N)[C@H](F)CO3)cs2)c(F)c1F` (single isomer, unassigned) [Example 366], for which the results for the concentration for half-maximal inhibition (IC50) with BaF3 parental cells (setting [2]) and in the experiment on BaF3 PIM1 cells (setting [5]) were 10300 nM and 302 nM, respectively. Further, the EC50 in experiment [1] (setting [6]) came to 1700 nM. Further, on PIM1, the inhibitory constant (Ki) came to 0.14 nM.
Regarding `Cn1ncc(NC(=O)c2csc(-c3c(F)cc([C@@H]4CCCO4)cc3F)n2)c1[C@@H]1CC[C@@H](N)[C@H](F)CO1` (single isomer, unassigned) [Example 371], the IC50 was above 25000 nM in the experiment with BaF3 parental cells (setting [2]) and 151 nM in the experiment on BaF3 PIM1 cells (setting [5]). The EC50 in experiment [1] (setting [6]) is 4400 nM. Also, at PIM1, the Ki came to 0.057 nM.
On to `Cn1ncc(NC(=O)c2csc(-c3c(F)cc([C@H]4CCCO4)cc3F)n2)c1[C@@H]1CC[C@@H](N)[C@H](F)CO1` (single isomer, unassigned) [Example 380], for which the IC50 turned out to be 12200 nM in the experiment on BaF3 parental cells (setting [2]) and 37.2 nM in the experiment on BaF3 PIM1 cells (setting [5]). In experiment [1] (setting [6]), the concentration giving a half-maximal response (EC50) is 1700 nM. Further, the Ki at PIM1 is 0.071 nM.
Consider `Cn1ncc(NC(=O)c2nc(-c3c(F)cccc3F)sc2N)c1[C@H]1CC[C@@H](N)C(F)CO1` (stereo in doubt) [Example 148, 5-Amino-N-[5-[5-amino-6-fluoro-oxepan-2-yl]-1-methyl-pyrazol-4-yl]-2-(2,6-difluorophenyl)thiazole-4-carboxamide], for which the IC50 in the experiment with BaF3 parental cells (setting [2]) was determined as 25000 nM; with BaF3 PIM1 cells (setting [5]) it was 1600 nM. Moreover, the EC50 in experiment [1] (setting [6]) was 7700 nM. In addition, the Ki on PIM1 was 0.079 nM.
`CC[C@@H]1CC(N)CC[C@H](c2c(NC(=O)c3nc(-c4c(F)cccc4F)sc3N)cnn2C)O1` (stereo partly drawn) [Example 112, 5-amino-N-(5-((2R,7R)-5-amino-7-ethyloxepan-2-yl)-1-methyl-1H-pyrazol-4-yl)-2-(2,6-difluorophenyl)thiazole-4-carboxamide]: the IC50 in the experiment with BaF3 parental cells (setting [2]) came out at 6900 nM; in the experiment with BaF3 PIM1 cells (setting [5]) it was 2100 nM. Besides, the EC50 in experiment [1] (setting [6]) was found to be 8500 nM. The Ki at PIM1 is 0.502 nM.
In the same order, the values of `C[C@@H]1C[C@@H](N)CC[C@H](c2c(NC(=O)c3nc(-c4c(F)cccc4F)sc3N)cnn2C)O1` [Example 121, 5-amino-N-(5-((2R,5S,7R)-5-amino-7-methyloxepan-2-yl)-1-methyl-1H-pyrazol-4-yl)-2-(2,6-difluorophenyl)thiazole-4-carboxamide] are 3500 nM, 13.6 nM, 11.9 nM and 0.003 nM.
In the case of `CO[C@@H]1COC(c2c(NC(=O)c3nc(-c4c(F)cccc4F)sc3N)cnn2C)CC[C@H]1N` (stereo partly drawn) [Example 126, 5-amino-N-(5-((5R,6S)-5-amino-6-methoxyoxepan-2-yl)-1-methyl-1H-pyrazol-4-yl)-2-(2,6-difluorophenyl)thiazole-4-carboxamide], the IC50 came to 25000 nM in the experiment with BaF3 parental cells (Mus musculus, BaF3, read-out: Prolif BaF3 IL3 (IC50)) and 25.2 nM in the experiment with BaF3 PIM1 cells (setting [5]). The EC50 in experiment [1] (Homo sapiens, MM1.S, 72 h) was determined as 21.7 nM. Besides, the Ki on PIM1 turned out to be 0.026 nM.
As to `Cn1ncc(NC(=O)c2nc(-c3c(F)cccc3F)sc2N)c1C1CC[C@@H](N)[C@@H](F)CO1` (stereo partly drawn) [Example 129, 5-amino-N-(5-((5R,6R)-5-amino-6-fluorooxepan-2-yl)-1-methyl-1H-pyrazol-4-yl)-2-(2,6-difluorophenyl)thiazole-4-carboxamide], the IC50 in the experiment with BaF3 parental cells (setting [2]) stood at 6900 nM; in the experiment with BaF3 PIM1 cells (setting [5]) it was 24.7 nM. Also, the half-maximal effective concentration (EC50) in experiment [1] (setting [6]) was 109 nM. Moreover, the Ki on PIM1 was 0.006 nM.
Consider `Cn1ncc(NC(=O)c2nc(-c3c(F)cccc3F)sc2N)c1C1CC[C@H](N)[C@H](F)CO1` (stereo partly drawn) [Example 131, 5-amino-N-(5-((5S,6S)-5-amino-6-fluorooxepan-2-yl)-1-methyl-1H-pyrazol-4-yl)-2-(2,6-difluorophenyl)thiazole-4-carboxamide], for which the IC50 with BaF3 parental cells (setting [2]) worked out at 6800 nM; in the experiment with BaF3 PIM1 cells (setting [5]), 1500 nM. Further, in experiment [1] (setting [6]), the EC50 came to 10000 nM. The Ki on PIM1 is 0.27 nM.
Consider `Cc1ccc(-c2nc(C(=O)Nc3cnn(C)c3[C@@H]3CC[C@@H](N)[C@H](F)CO3)cs2)c(F)c1` [Example 316, N-(5-((2S,5R,6S)-5-amino-6-fluorooxepan-2-yl)-1-methyl-1H-pyrazol-4-yl)-2-(2-fluoro-4-methylphenyl)thiazole-4-carboxamide], for which the IC50 was found to be 9300 nM in the experiment on BaF3 parental cells (setting [2]) and 126 nM in the experiment with BaF3 PIM1 cells (setting [7]). Besides, the EC50 in experiment [1] (setting [6]) was 686 nM.
As for `Cn1ncc(NC(=O)c2nc(-c3ccccc3F)sc2N)c1[C@@H]1CC[C@@H](N)[C@H](F)CO1` [Example 317, 5-amino-N-(5-((2S,5R,6S)-5-amino-6-fluorooxepan-2-yl)-1-methyl-1H-pyrazol-4-yl)-2-(2-fluorophenyl)thiazole-4-carboxamide], the values for the IC50 in the experiment on BaF3 parental cells (setting [2]) and with BaF3 PIM1 cells (setting [5]) were 7900 nM and 15.2 nM, respectively. In experiment [1] (setting [6]), the EC50 was determined as 34.5 nM. The Ki at PIM1 was 0.00509 nM.
Regarding `Cn1ncc(NC(=O)c2csc(-c3c(F)cccc3F)n2)c1[C@@H]1CC[C@@H](N)[C@@H](F)CO1` [Example 319, N-(5-((2S,5R,6R)-5-amino-6-fluorooxepan-2-yl)-1-methyl-1H-pyrazol-4-yl)-2-(2,6-difluorophenyl)thiazole-4-carboxamide], the values for the IC50 with BaF3 parental cells (setting [2]) and in the experiment with BaF3 PIM1 cells (setting [5]) were 7800 nM and 129 nM, respectively. Besides, in experiment [1] (setting [6]), the EC50 amounted to 875 nM. Further, the Ki on PIM1 was determined as 0.038 nM.
For `Cn1ncc(NC(=O)c2nc(-c3ccccc3)sc2N)c1[C@@H]1CC[C@@H](N)[C@H](F)CO1` [Example 320, 5-amino-N-(5-((2S,5R,6S)-5-amino-6-fluorooxepan-2-yl)-1-methyl-1H-pyrazol-4-yl)-2-phenylthiazole-4-carboxamide], the values for the IC50 in the experiment with BaF3 parental cells (setting [2]) and in the experiment on BaF3 PIM1 cells (setting [5]) were above 25000 nM and 24.4 nM, respectively. Further, the EC50 in experiment [1] (setting [6]) is 187 nM. The Ki at PIM1 was 0.036 nM.
For `Cn1ncc(NC(=O)c2nc(-c3c(Cl)cccc3C(F)(F)F)sc2N)c1[C@@H]1CC[C@@H](N)[C@H](F)CO1` [Example 329, 5-amino-N-(5-((2S,5R,6S)-5-amino-6-fluorooxepan-2-yl)-1-methyl-1H-pyrazol-4-yl)-2-(2-chloro-6-(trifluoromethyl)phenyl)thiazole-4-carboxamide], the IC50 with BaF3 parental cells (setting [2]) was found to be 2400 nM; in the experiment with BaF3 PIM1 cells (setting [5]) it was 348 nM. Also, in experiment [1] (setting [6]), the EC50 came to 1700 nM.
With `C[C@@H]1O[C@H](c2c(NC(=O)c3ccc(F)c(-c4c(F)cccc4F)n3)cnn2C)C[C@H](N)[C@@]1(C)O` [Example 344, N-(5-((2S,4S,5R,6S)-4-amino-5-hydroxy-5,6-dimethyltetrahydro-2H-pyran-2-yl)-1-methyl-1H-pyrazol-4-yl)-6-(2,6-difluorophenyl)-5-fluoropicolinamide], the IC50 in the experiment with BaF3 parental cells (setting [2]) came to 14000 nM; with BaF3 PIM1 cells (setting [7]), 9000 nM. Moreover, the EC50 in experiment [1] (setting [6]) was 9800 nM.
Take `C[C@@H]1O[C@H](c2c(NC(=O)c3nc(-c4c(F)cccc4F)sc3N)cnn2C)C[C@H](N)[C@@]1(C)O` [Example 346, 5-amino-N-(5-((2S,4S,5R,6S)-4-amino-5-hydroxy-5,6-dimethyltetrahydro-2H-pyran-2-yl)-1-methyl-1H-pyrazol-4-yl)-2-(2,6-difluorophenyl)thiazole-4-carboxamide]: the figures for the concentration for half-maximal inhibition (IC50) with BaF3 parental cells (setting [2]) and in the experiment on BaF3 PIM1 cells (setting [7]) were above 25000 nM and 517 nM, respectively. The EC50 in experiment [1] (setting [6]) stood at 4300 nM.
